The values that follow come from ChEMBL document CHEMBL5120774, “Genome-Mining-Guided Discovery and Characterization of the PKS-NRPS-Hybrid Polyoxyperuin Produced by a Marine-Derived Streptomycete” (2022).

Molecules are shown by their SMILES. Values after ≈ are worked out from the molar mass of the structure shown.

What all share (format): functional
One assay relates to Staphylococcus aureus. Description: Antibacterial activity against Staphylococcus aureus ATCC 25923 assessed as inhibition of bacterial growth incubated for 18 hrs by broth microdilution method. (Dilution methods test growth across graded concentrations, often in twofold steps.)
The subject of another assay is Listeria monocytogenes. Description: Antibacterial activity against Listeria monocytogenes DSM20600 assessed as inhibition of bacterial growth incubated for 48 hrs by BacTiter-Glo assay.
Assay [1] has as its system Mycolicibacterium smegmatis. Put plainly: Antibacterial activity against Mycobacterium smegmatis ATCC 607 assessed as inhibition of bacterial growth incubated for 48 hrs by BacTiter-Glo assay.
The next assay relates to Bacillus subtilis. Put plainly: Antibacterial activity against Bacillus subtilis DSM10 assessed as inhibition of bacterial growth incubated for 18 hrs by broth microdilution method.
The test system of another assay is Escherichia coli. Put plainly: Antibacterial activity against Escherichia coli ATCC 35218 assessed as inhibition of bacterial growth incubated for 18 hrs by broth microdilution method.
The next assay has as its system Micrococcus luteus. Put plainly: Antibacterial activity against Micrococcus luteus DSM20030 assessed as inhibition of bacterial growth incubated for 18 hrs by broth microdilution method.

Usually MIC stands for the lowest concentration found to suppress growth. On to `CC[C@H]1OC(O)(C(C)(O)C(=O)N[C@@H]2C(=O)N3NCCC[C@@H]3C(=O)N(O)[C@@H](C)C(=O)N(C)[C@@H](CC(C)C)C(=O)N3NCCC[C@@H]3C(=O)N(O)CC(=O)OC2C(C)C)CC[C@@H]1C` (some centres not stated), for which the minimum inhibitory concentration (MIC) with Staphylococcus aureus was 0.125 µg/mL (≈ 0.146 µM); in the assay with Listeria monocytogenes, below 0.031 µg/mL; in assay [1], above 64 µg/mL; in the assay on Bacillus subtilis, 0.125 µg/mL (≈ 0.146 µM); in the assay with Escherichia coli, above 64 µg/mL; in the assay with Micrococcus luteus, below 0.031 µg/mL.

Consider `CC[C@H]1OC(O)(C(C)(O)C(=O)N[C@H](C(=O)N2NCCC[C@@H]2C(=O)N(O)[C@@H](C)C(=O)N(C)[C@@H](CC(C)C)C(=O)N2NCCC[C@@H]2C(=O)N(O)CC(=O)O)C(O)C(C)C)CC[C@@H]1C` (some centres not stated), for which the MIC in the assay on Staphylococcus aureus is above 64 µg/mL; with Listeria monocytogenes, above 64 µg/mL; in assay [1], above 64 µg/mL; with Bacillus subtilis it was above 64 µg/mL; in the assay with Escherichia coli it was above 64 µg/mL; in the assay on Micrococcus luteus, 32 µg/mL (≈ 36.7 µM).
